# Bridge positions count the residues as written; N and C are the ends. Square brackets hold non-standard residues; d marks the D form. Peptide text beside a SMILES is read from it. * marks the point of attachment. ξ: configuration not given here. Ala(morpholin-4-yl) = N[C@@H](CN1CCOCC1)C(=O)O; Phe(4-COOH) = N[C@@H](Cc1ccc(C(=O)O)cc1)C(=O)O; Bip = N[C@@H](Cc1ccc(-c2ccccc2)cc1)C(=O)O; Phe(3-Me) = Cc1cccc(C[C@H](N)C(=O)O)c1; NH(CH2)12COOH = O=C(O)CCCCCCCCCCCCN*; Val(3-OH) = CC(C)(O)[C@H](N)C(=O)O; Cha = N[C@@H](CC1CCCCC1)C(=O)O; Cit = NC(=O)NCCC[C@H](N)C(=O)O; Ile(3ξ) = CCC(C)[C@H](N)C(=O)O; Thr(3ξ) = CC(O)[C@H](N)C(=O)O; 12Ado = NCCCCCCCCCCCC(=O)O; hSer = N[C@@H](CCO)C(=O)O; Carboxymethyl = O=C(O)C*; Orn = NCCC[C@H](N)C(=O)O; Aun = NCCCCCCCCCCC(=O)O; Dab = NCC[C@H](N)C(=O)O; Abu = CC[C@H](N)C(=O)O; Dap = NC[C@H](N)C(=O)O; AEEA = NCCOCCOCC(=O)O
# Biological target: T1, PD-1/PD-L1 interaction (PE-labeled human PD-L1-Ig binding to Jurkat cell line over-expressing human PD-1) (Homo sapiens, UniProt Q15116)
# T1 construct: expressed in transfected cells; host or cells: Jurkat
# Assay: Jurkat-PD-1 Cell Binding High-Content Screening Assay (CBA)
# Format: cell-based
# Details: Jurkat cell line over-expressing human PD-1; PE-labeled PD-L1-Ig 20 nM final; read-out: Jurkat hPD1-PDL1 IC50
# Procedure, shortened: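 Jurkat cells stably over-expressing human PD-1 were seeded in DMEM with 10% fetal calf serum and pre-incubated with compound for 2 h at 37° C. PE-labeled human PD-L1-Ig was then added at 20 nM final for 1 hour, after which cells were fixed with paraformaldehyde, Hoechst-stained and imaged by high-content microscopy.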
# T1 sequence (Q15116 25-288): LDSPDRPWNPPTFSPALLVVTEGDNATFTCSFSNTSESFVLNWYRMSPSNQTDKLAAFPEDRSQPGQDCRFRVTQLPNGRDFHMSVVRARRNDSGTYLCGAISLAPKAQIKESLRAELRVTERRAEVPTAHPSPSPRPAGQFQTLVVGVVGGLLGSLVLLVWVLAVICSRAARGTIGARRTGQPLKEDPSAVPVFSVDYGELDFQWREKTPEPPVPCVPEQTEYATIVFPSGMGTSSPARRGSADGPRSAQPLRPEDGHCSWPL
row,IC50 [nM],SMILES
1,26.5,Cc1cccc(C[C@@H]2NC(=O)[C@H](CC(=O)O)NC(=O)[C@H](Cc3ccc(OCC(=O)O)cc3)NC(=O)[C@H](CN)NC(=O)CSC[C@@H](C(=O)N[C@@H](CCC(=O)O)C(=O)NCC(=O)NCCCCCCCCCCC(=O)O)NC(=O)[C@H]([C@@H](C)O)NC(=O)[C@H](C(C)C)NC(=O)[C@H](CC3CCCCC3)NC(=O)[C@H](Cc3cnc[nH]3)NC(=O)[C@@H](CC(C)C)NC(=O)[C@H](CCCN)NC(=O)[C@H](C(C)C)NC(=O)[C@H](Cc3ccc(-c4ccccc4)cc3)NC(=O)[C@H](C(C)C)NC2=O)c1 [Compound 1106] ({CH2CO}-[Dap]Y(Carboxymethyl)D[Phe(3-Me)]V[Bip]V[Orn][dL]H[Cha]VTCEG[Aun]-OH; thioether N-14)
2,0.9,Cc1cccc(C[C@@H]2NC(=O)[C@H](CC(=O)O)NC(=O)[C@H](Cc3ccc(OCC(=O)O)cc3)NC(=O)[C@H](CN3CCOCC3)NC(=O)CSC[C@@H](C(=O)N[C@@H](CCN)C(=O)NCCCCCCCCCCC(=O)O)NC(=O)[C@H](CO)NC(=O)[C@H](C(C)(C)O)NC(=O)[C@H](CC3CCCCC3)NC(=O)[C@H](CCN)NC(=O)[C@@H](CC(C)C)NC(=O)[C@H](CCCN)NC(=O)[C@H](Cc3ccc(OCC(=O)O)cc3)NC(=O)[C@H](Cc3ccc(-c4ccccc4)cc3)NC(=O)[C@H](Cc3ccc(OCC(=O)O)cc3)NC2=O)c1 [Compound 2235] ({CH2CO}-[Ala(morpholin-4-yl)]Y(Carboxymethyl)D[Phe(3-Me)]Y(Carboxymethyl)[Bip]Y(Carboxymethyl)[Orn][dL][Dab][Cha][Val(3-OH)]SC[Dab][Aun]-OH; thioether N-14)
3,39.4,Cc1cccc(C[C@@H]2NC(=O)[C@H](CC(=O)O)NC(=O)[C@H](Cc3ccc(OCC(=O)O)cc3)NC(=O)[C@H](CCCNC(=N)N)NC(=O)CSC[C@@H](C(=O)N[C@@H](CCO)C(=O)NCCCCCCCCCCCC(=O)O)NC(=O)[C@H](C(C)O)NC(=O)[C@H](C(C)C)NC(=O)[C@H](CC3CCCCC3)NC(=O)[C@H](CCN)NC(=O)[C@@H](CC(C)C)NC(=O)[C@H](CCCN)NC(=O)[C@H](CCCNC(N)=O)NC(=O)[C@H](Cc3ccc(-c4ccccc4)cc3)NC(=O)[C@H](C(C)C)NC2=O)c1 (stereo partly drawn) [Compound 3565] ({CH2CO}-RY(Carboxymethyl)D[Phe(3-Me)]V[Bip][Cit][Orn][dL][Dab][Cha]V[Thr(3ξ)]C[hSer][12Ado]-OH; thioether N-14)
4,35.8,CC(C)C[C@H]1NC(=O)[C@H](CCCN)NC(=O)[C@H](C(C)C)NC(=O)[C@H](Cc2ccc(-c3ccccc3)cc2)NC(=O)[C@H](C(C)C)NC(=O)[C@H](Cc2c[nH]c3ccccc23)NC(=O)[C@H](CC(=O)O)NC(=O)[C@H](Cc2ccc(OCC(=O)O)cc2)NC(=O)[C@H](C(C)O)NC(=O)CSC[C@@H](C(=O)N[C@@H](CCN)C(=O)NCCCCCCCCCCC(=O)O)NC(=O)[C@H](CN)NC(=O)[C@H](C(C)O)NC(=O)[C@H](CC2CCCCC2)NC(=O)[C@H](CCN)NC1=O (stereo partly drawn) [Compound 3661] ({CH2CO}-[Thr(3ξ)]Y(Carboxymethyl)DWV[Bip]V[Orn][dL][Dab][Cha][Thr(3ξ)][Dap]C[Dab][Aun]-OH; thioether N-14)
5,10,Cc1cccc(C[C@@H]2NC(=O)[C@H](CC(=O)O)NC(=O)[C@H](Cc3ccc(C(=O)O)cc3)NC(=O)[C@H](CCN)NC(=O)CSC[C@@H](C(=O)N[C@@H](CCN)C(=O)NCCOCCOCC(=O)NCCOCCOCC(=O)NCCCCCCCCCCCCC(=O)O)NC(=O)[C@H](Cc3c[nH]cn3)NC(=O)[C@H](C(C)(C)O)NC(=O)[C@H](CC3CCCCC3)NC(=O)[C@H](CCN)NC(=O)[C@@H](CC(C)C)NC(=O)[C@H](CCCN)NC(=O)[C@H](Cc3ccc(C(=O)O)cc3)NC(=O)[C@H](Cc3ccc(-c4ccccc4)cc3)NC(=O)[C@H](Cc3ccc(C(=O)O)cc3)NC2=O)c1 [Compound 2886] ({CH2CO}-[Dab][Phe(4-COOH)]D[Phe(3-Me)][Phe(4-COOH)][Bip][Phe(4-COOH)][Orn][dL][Dab][Cha][Val(3-OH)]HC[Dab][AEEA][AEEA]-{NH(CH2)12COOH}; thioether N-14)
6,3.8,CC[C@@H]1NC(=O)CSC[C@@H](C(=O)N[C@@H](CCN)C(=O)NCCCCCCCCCCC(=O)O)NC(=O)[C@H](CCC(=O)O)NC(=O)[C@H](C(C)(C)O)NC(=O)[C@H](CC2CCCCC2)NC(=O)[C@H](CCN)NC(=O)[C@@H](CC(C)C)NC(=O)[C@H](CCCN)NC(=O)[C@H](Cc2ccc(OCC(=O)O)cc2)NC(=O)[C@H](Cc2ccc(-c3ccccc3)cc2)NC(=O)[C@H](Cc2ccc(OCC(=O)O)cc2)NC(=O)[C@H](Cc2cccc(C)c2)NC(=O)[C@H](CC(=O)O)NC(=O)[C@H](Cc2ccc(OCC(=O)O)cc2)NC1=O [Compound 3794] ({CH2CO}-[Abu]Y(Carboxymethyl)D[Phe(3-Me)]Y(Carboxymethyl)[Bip]Y(Carboxymethyl)[Orn][dL][Dab][Cha][Val(3-OH)]EC[Dab][Aun]-OH; thioether N-14)
7,62.2,Cc1cccc(C[C@@H]2NC(=O)[C@H](CC(=O)O)NC(=O)[C@H](Cc3ccc(OCC(=O)O)cc3)NC(=O)[C@H](Cc3ccc(O)cc3)NC(=O)CSC[C@@H](C(=O)N[C@@H](CCN)C(=O)NCCCCCCCCCCC(=O)O)NC(=O)[C@H]([C@@H](C)O)NC(=O)[C@H](C(C)C)NC(=O)[C@H](CC3CCCCC3)NC(=O)[C@H](CCN)NC(=O)[C@@H](CC(C)C)NC(=O)[C@H](CCCN)NC(=O)[C@H](CCCNC(N)=O)NC(=O)[C@H](Cc3ccc(-c4ccccc4)cc3)NC(=O)[C@H](C(C)C)NC2=O)c1 [Compound 2826] ({CH2CO}-YY(Carboxymethyl)D[Phe(3-Me)]V[Bip][Cit][Orn][dL][Dab][Cha]VTC[Dab][Aun]-OH; thioether N-14)
8,24.6,CCC(C)[C@@H]1NC(=O)[C@H](CC2CCCCC2)NC(=O)[C@H](CCN)NC(=O)[C@@H](CC(C)C)NC(=O)[C@H](CCCN)NC(=O)[C@H](C(C)CC)NC(=O)[C@H](Cc2ccc(-c3ccccc3)cc2)NC(=O)[C@H](C(C)CC)NC(=O)[C@H](Cc2c[nH]c3ccccc23)NC(=O)[C@H](CC(=O)O)NC(=O)[C@H](Cc2ccc(OCC(=O)O)cc2)NC(=O)[C@H](C(C)O)NC(=O)CSC[C@@H](C(=O)N[C@H](CC(N)=O)C(=O)NCCOCCOCC(=O)N[C@@H](Cc2c[nH]cn2)C(=O)NCCCCCCCCCCC(=O)O)NC(=O)[C@H](CO)NC1=O (stereo partly drawn) [Compound 3119] ({CH2CO}-[Thr(3ξ)]Y(Carboxymethyl)DW[Ile(3ξ)][Bip][Ile(3ξ)][Orn][dL][Dab][Cha][Ile(3ξ)]SC[dN][AEEA]H[Aun]-OH; thioether N-14)
9,51.5,CC[C@H](C)[C@@H]1NC(=O)[C@H](Cc2ccc(-c3ccccc3)cc2)NC(=O)[C@H](C(C)C)NC(=O)[C@H](Cc2cccc(C)c2)NC(=O)[C@H](CC(=O)O)NC(=O)[C@H](Cc2ccc(C(=O)O)cc2)NC(=O)[C@H](Cc2ccncc2)NC(=O)CSC[C@@H](C(=O)N[C@@H](CCCN)C(=O)NCCCCCCCCCCC(=O)O)NC(=O)[C@H]([C@@H](C)O)NC(=O)[C@H](C(C)C)NC(=O)[C@H](CC2CCCCC2)NC(=O)[C@H](CCN)NC(=O)[C@@H](CC(C)C)NC(=O)[C@H](CCCN)NC1=O [Compound 1184]
10,4.3,Cc1cccc(C[C@@H]2NC(=O)[C@H](CC(=O)O)NC(=O)[C@H](Cc3ccc(OCC(=O)O)cc3)NC(=O)[C@H](CN)NC(=O)CSC[C@@H](C(=O)N[C@@H](CCN)C(=O)NCCOCCOCC(=O)NCCCCCCCCCCC(=O)O)NC(=O)[C@H](CCCN)NC(=O)[C@H](C(C)C)NC(=O)[C@H](CC3CCCCC3)NC(=O)[C@H](CCN)NC(=O)[C@@H](CC(C)C)NC(=O)[C@H](CCCN)NC(=O)[C@H](Cc3ccc(O)cc3)NC(=O)[C@H](Cc3ccc(-c4ccccc4)cc3)NC(=O)[C@H](Cc3ccc(C(=O)O)cc3)NC2=O)c1 [Compound 2060] ({CH2CO}-[Dap]Y(Carboxymethyl)D[Phe(3-Me)][Phe(4-COOH)][Bip]Y[Orn][dL][Dab][Cha]V[Orn]C[Dab][AEEA][Aun]-OH; thioether N-14)
11,18.2,CC(C)C[C@H]1NC(=O)[C@H](CCCN)NC(=O)[C@H](C(C)C)NC(=O)[C@H](Cc2ccc(-c3ccccc3)cc2)NC(=O)[C@H](C(C)C)NC(=O)[C@H](Cc2c[nH]c3ccccc23)NC(=O)[C@H](CC(=O)O)NC(=O)[C@H](Cc2ccc(C(=O)O)cc2)NC(=O)[C@H](Cc2ccc(OCC(=O)O)cc2)NC(=O)CSC[C@@H](C(=O)NCCCCCCCCCCC(=O)O)NC(=O)[C@H](CCCCN)NC(=O)[C@H](C(C)C)NC(=O)[C@H](CC2CCCCC2)NC(=O)[C@H](CCN)NC1=O [Compound 2601] ({CH2CO}-Y(Carboxymethyl)[Phe(4-COOH)]DWV[Bip]V[Orn][dL][Dab][Cha]VKC[Aun]-OH; thioether N-14)
12,29.3,CC(C)C[C@H]1NC(=O)[C@H](CCCN)NC(=O)[C@H](C(C)C)NC(=O)[C@H](Cc2ccc(-c3ccccc3)cc2)NC(=O)[C@H](C(C)C)NC(=O)[C@H](Cc2c[nH]c3ccccc23)NC(=O)[C@H](CC(=O)O)NC(=O)[C@H](Cc2ccc(C(=O)O)cc2)NC(=O)[C@H](Cc2ccc(OCC(=O)O)cc2)NC(=O)CSC[C@@H](C(=O)NCCOCCOCC(=O)NCCCCCCCCCCC(=O)O)NC(=O)[C@H](CCCCN)NC(=O)[C@H](C(C)C)NC(=O)[C@H](CC2CCCCC2)NC(=O)[C@H](CCN)NC1=O [Compound 2563] ({CH2CO}-Y(Carboxymethyl)[Phe(4-COOH)]DWV[Bip]V[Orn][dL][Dab][Cha]VKC[AEEA][Aun]-OH; thioether N-14)
13,7.4,Cc1cccc(C[C@@H]2NC(=O)[C@H](CC(=O)O)NC(=O)[C@H](Cc3ccc(OCC(=O)O)cc3)NC(=O)[C@H](C(C)O)NC(=O)CSC[C@@H](C(=O)NCCOCCOCC(=O)NCCCCCCCCCCC(=O)O)NC(=O)[C@H](CCCNC(N)=O)NC(=O)[C@H](C(C)C)NC(=O)[C@H](CC3CCCCC3)NC(=O)[C@H](CCN)NC(=O)[C@@H](CC(C)C)NC(=O)[C@H](CCN)NC(=O)[C@H](Cc3ccc(O)cc3)NC(=O)[C@H](Cc3ccc(-c4ccccc4)cc3)NC(=O)[C@H](C(C)C)NC2=O)c1 (stereo partly drawn) [Compound 3397] ({CH2CO}-[Thr(3ξ)]Y(Carboxymethyl)D[Phe(3-Me)]V[Bip]Y[Dab][dL][Dab][Cha]V[Cit]C[AEEA][Aun]-OH; thioether N-14)
